The values below come from US20100234377A1 (priority 2007, published 2010).

In the assay the target is T1, human Prostaglandin D Synthase (GST2) (Homo sapiens, UniProt O60760).
T1 construct: the open reading frame of human Prostaglandin D Synthase was amplified from cDNA; made in house; host or cells: E. coli TOP10F'
As to the kind of experiment: Homogeneous biochemical assay of human Prostaglandin D Synthase (GST2) based on its glutathion-S-transferase activity (GSH conjugation to monochlorobimane, fluorescence). As to conditions: given beside the compound name in Examples 1 to 167; read-out: Potency Range (GST2 IC50). The source says: Homogeneous, Biochemical Assay Monitoring the Activity of Human Prostaglandin D Synthase Based on the Glutathion-S-Transferase Activity of the Enzyme
Prostaglandin D2 synthesis by Prostaglandin D synthase (GST2) requires transfer of Glutathion (GSH) to the substrate, Prostaglandin H2. […] Since the Prostaglandin D2 synthesis is absolutely dependent on the GST activity of the enzyme, assays monitoring the GST activity should allow to identify specific inhibitors of Prostaglandin D2 synthetic activity. The assay principle used is based on enzymatic conjugation of GSH to Monochlorobimane (MCB), that becomes fluorescent upon this chemical modification. Therefore, the enzymatic reaction can be monitored by total fluorescence measurement.
In brief, the open reading frame of human Prostaglandin D Synthase was amplified from cDNA using the primer pair:
This construct allows prokaryotic expression of Prostaglandin D Synthase as fusion protein with a N-terminal hexa-histidine tag, referred to as NHis-Prostaglandin D Synthase.
Expression of NHis-Prostaglandin D Synthase was in E. coli TOP10F′ (Invitrogen, Germany, cat. no. C3030-03). […] When the culture had reached a density corresponding to an A600 of 0.6, an equal volume of room temperature LB/ampicillin was added. […] Cells harvested by centrifugation were resuspended in 50 mM tris(hydroxymethyl)aminomethane hydrochloride pH 7.5 (Tris/HCl, Sigma, cat. no. T5941).
Removal of unbound material was with 100 ml lysis buffer. Elution was with 50 ml of 50 mM Tris/HCl pH 7.5, 300 mM imidazol (Sigma, Germany, cat. no. I2399)/HCl pH 7.5). […] Aliquots were shock frozen in liquid nitrogen and stored at −80° C.
All assay components were diluted in reaction buffer, 50 mM MES/KOH (pH 6.1), 0.7 mM GSH (Sigma, G4251), 2 mM MgCl2 (Sigma, M2670), 0.05% Pluronic F127 (Sigma, P2443), and stored on ice prior to use. Compounds were diluted in 90% DMSO yielding final assay concentrations from the picomolar to three digit micromolar range.
Total fluorescent measurement was carried out with excitation and emission wavelength of 390 and 460 nm, respectively (BMG Fluostar Optima).

T1 sequence (O60760 whole entry): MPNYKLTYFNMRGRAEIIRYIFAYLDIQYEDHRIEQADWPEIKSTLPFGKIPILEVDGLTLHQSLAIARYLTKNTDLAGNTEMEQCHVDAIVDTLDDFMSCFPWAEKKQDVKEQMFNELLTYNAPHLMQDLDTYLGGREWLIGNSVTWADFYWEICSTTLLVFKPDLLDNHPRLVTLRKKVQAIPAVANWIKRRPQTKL

Regarding `O=C(Nc1ccc(N2CCOCC2)c(F)c1)N1CCN(C(=O)c2cccc(F)c2)CC1` [Compound 41, 4-(3-Fluoro-benzoyl)-piperazine-1-carboxylic acid (3-fluoro-4-morpholin-4-yl-phenyl)-amide], the IC50 fell in the range of 11 to 100 nM.

`O=C(c1ccccc1)c1ccc(NC(=O)N2CCN(C(=O)c3cccc(F)c3)CC2)cc1` [Compound 42, 4-(3-Fluoro-benzoyl)-piperazine-1-carboxylic acid (4-benzoyl-phenyl)-amide]: the IC50 was 11 to 100 nM.

In the case of `O=C(Nc1ccc(Br)c(-c2ccncc2)c1)N1CCN(C(=O)c2cccc(F)c2)CC1` [Compound 43, 4-(3-Fluoro-benzoyl)-piperazine-1-carboxylic acid (4-bromo-3-pyridin-4-yl-phenyl)-amide], the IC50 fell in the range of 11 to 100 nM.

For the compound `O=C(Nc1ccc(Oc2cccnc2)nc1)N1CCN(C(=O)c2cccc(F)c2)CC1` [Compound 44, 4-(3-Fluoro-benzoyl)-piperazine-1-carboxylic acid [6-(pyridin-3-yloxy)-pyridin-3-yl]-amide], the IC50 fell in the range of 101 to 1000 nM.

Regarding `O=C(Nc1cnc2ccccc2c1)N1CCN(C(=O)c2cccc(F)c2)CC1` [Compound 45, 4-(3-Fluoro-benzoyl)-piperazine-1-carboxylic acid quinolin-3-ylamide], the IC50 lay within 101 to 1000 nM.

With `CC(C)(C)OC(=O)N1CCN(c2ccc(NC(=O)N3CCN(C(=O)c4cccc(F)c4)CC3)cc2F)CC1` [Compound 46, 4-(2-Fluoro-4-{[4-(3-fluoro-benzoyl)-piperazine-1-carbonyl]-amino}-phenyl)-piperazine-1-carboxylic acid tert-butyl ester], the IC50 lay within 11 to 100 nM.

For the compound `O=C(Nc1ccc(N2CCOCC2)c(F)c1)N1CCN(C(=O)c2cc(F)ccc2F)CC1` [Compound 47, 4-(2,5-Difluoro-benzoyl)-piperazine-1-carboxylic acid (3-fluoro-4-morpholin-4-yl-phenyl)-amide], the IC50 fell in the range of 101 to 1000 nM.

Regarding `CC(C)(C)OC(=O)N1CCN(c2ccc(NC(=O)N3CCN(C(=O)c4cc(F)ccc4F)CC3)cc2F)CC1` [Compound 48, 4-(4-{[4-(2,5-Difluoro-benzoyl)-piperazine-1-carbonyl]-amino}-2-fluoro-phenyl)-piperazine-1-carboxylic acid tert-butyl ester], the IC50 is 101 to 1000 nM.

As for `O=C(Nc1ccc([N+](=O)[O-])cc1)N1CCN(C(=O)c2cc(F)ccc2F)CC1` [Compound 49, 4-(2,5-Difluoro-benzoyl)-piperazine-1-carboxylic acid (4-nitro-phenyl)-amide], the IC50 was in the range of 101 to 1000 nM.

With `CCCCNC(=O)N1CCN(c2ccc(NC(=O)N3CCN(C(=O)c4cccc(F)c4)CC3)cc2F)CC1` [Compound 53], the IC50 is 11 to 100 nM.

Turning to `O=C(Nc1ccc(N2CCN(C(=O)NC3CCCC3)CC2)c(F)c1)N1CCN(C(=O)c2cccc(F)c2)CC1` [Compound 54, N-{4-[4-(cyclopentylcarbamoyl)piperazin-1-yl]-3-fluorophenyl}-4-(3-fluorobenzoyl)piperazine-1-carboxamide], the IC50 is 11 to 100 nM.

Take `CC(C)NC(=O)N1CCN(c2ccc(NC(=O)N3CCN(C(=O)c4cc(F)ccc4F)CC3)cc2F)CC1` [Compound 55, 4-(2,5-difluorobenzoyl)-N-{3-fluoro-4-[4-(isopropylcarbamoyl)piperazin-1-yl]phenyl}piperazine-1-carboxamide]: the IC50 is 101 to 1000 nM.

For the compound `CC(C)(C)C(=O)N1CCN(c2ccc(NC(=O)N3CCN(C(=O)c4cccc(F)c4)CC3)cc2F)CC1` [Compound 56, 4-(3-Fluoro-benzoyl)-piperazine-1-carboxylic acid {4-[4-(2,2-dimethyl-propionyl)-piperazin-1-yl]-3-fluoro-phenyl}-amide], the IC50 fell in the range of 11 to 100 nM.

Regarding `CC(C)C(=O)N1CCN(c2ccc(NC(=O)N3CCN(C(=O)c4cccc(F)c4)CC3)cc2F)CC1` [Compound 57, 4-(3-Fluoro-benzoyl)-piperazine-1-carboxylic acid [3-fluoro-4-(4-isobutyryl-piperazin-1-yl)-phenyl]-amide], the IC50 was 11 to 100 nM.

As for `CC(C)C(=O)N1CCN(c2ccc(NC(=O)N3CCN(C(=O)c4cc(F)ccc4F)CC3)cc2F)CC1` [Compound 58, 4-(2,5-Difluoro-benzoyl)-piperazine-1-carboxylic acid [3-fluoro-4-(4-isobutyryl-piperazin-1-yl)-phenyl]-amide], the IC50 was 101 to 1000 nM.

As for `CC(=O)N1CCN(c2ccc(NC(=O)N3CCN(C(=O)c4cccc(F)c4)CC3)cc2)CC1` [Compound 61], the IC50 was 101 to 1000 nM.

`Cc1cc(NC(=O)N2CCN(C(=O)c3cccc(F)c3)CC2)no1` [Compound 62, 4-(3-Fluoro-benzoyl)-piperazine-1-carboxylic acid (5-methyl-isoxazol-3-yl)-amide]: the IC50 was 101 to 1000 nM.

With `O=C(Nc1nc2ccccc2[nH]1)N1CCN(C(=O)c2cccc(F)c2)CC1` [Compound 64, 4-(3-Fluoro-benzoyl)-piperazine-1-carboxylic acid (1H-benzoimidazol-2-yl)-amide], the IC50 lay in the range of 101 to 1000 nM.

For `O=C(Nc1nc2ccccc2s1)N1CCN(C(=O)c2cccc(F)c2)CC1` [Compound 65, 4-(3-Fluoro-benzoyl)-piperazine-1-carboxylic acid benzothiazol-2-ylamide], the IC50 lay in the range of 11 to 100 nM.

Consider `O=C(Nc1nc2ccc(F)cc2s1)N1CCN(C(=O)c2cccc(F)c2)CC1` [Compound 66, 4-(3-Fluoro-benzoyl)-piperazine-1-carboxylic acid (6-fluoro-benzothiazol-2-yl)-amide], for which the IC50 was in the range of 11 to 100 nM.

With `O=C(Nc1nc2ccc(OC(F)(F)F)cc2s1)N1CCN(C(=O)c2cccc(F)c2)CC1` [Compound 67, 4-(3-Fluoro-benzoyl)-piperazine-1-carboxylic acid (6-trifluoromethoxy-benzothiazol-2-yl)-amide], the IC50 lay in the range of 11 to 100 nM.

With `O=C(Nc1nc2ccc(Br)cc2s1)N1CCN(C(=O)c2cccc(F)c2)CC1` [Compound 68, 4-(3-Fluoro-benzoyl)-piperazine-1-carboxylic acid (6-bromo-benzothiazol-2-yl)-amide], the IC50 lay within 1 to 10 nM.

On to `O=C(Nc1nc(-c2ccccc2)ns1)N1CCN(C(=O)c2cccc(F)c2)CC1` [Compound 70, 4-(3-Fluoro-benzoyl)-piperazine-1-carboxylic acid (3-phenyl-[1,2,4]thiadiazol-5-yl)-amide], for which the IC50 is 11 to 100 nM.

`O=C(Nc1nnc(-c2ccncc2)s1)N1CCN(C(=O)c2cccc(F)c2)CC1` [Compound 71, 4-(3-Fluoro-benzoyl)-piperazine-1-carboxylic acid (5-pyridin-4-yl[1,3,4]thiadiazol-2-yl)-amide]: the IC50 lay in the range of 11 to 100 nM.

Consider `O=C(Nc1nnc(-c2ccccc2)o1)N1CCN(C(=O)c2cccc(F)c2)CC1` [Compound 72, 4-(3-Fluoro-benzoyl)-piperazine-1-carboxylic acid (5-phenyl-[1,3,4]oxadiazol-2-yl)-amide], for which the IC50 was 11 to 100 nM.

As for `O=C(Nc1nc(-c2ccccn2)cs1)N1CCN(C(=O)c2cccc(F)c2)CC1` [Compound 73, 4-(3-Fluoro-benzoyl)-piperazine-1-carboxylic acid (4-pyridin-2-yl-thiazol-2-yl)-amide], the IC50 was in the range of 11 to 100 nM.

Take `O=C(Nc1nc(-c2cccnc2)cs1)N1CCN(C(=O)c2cccc(F)c2)CC1` [Compound 74, 4-(3-Fluoro-benzoyl)-piperazine-1-carboxylic acid (4-pyridin-3-yl-thiazol-2-yl)-amide]: the IC50 was in the range of 11 to 100 nM.
